Assay results taken from patent US20260216238A1, “TETRATHIOMOLYBDIC ACID FOR USE IN TREATING COPPER METABOLISM-ASSOCIATED DISEASES OR DISORDERS (WILSON DISEASE)” (Alexion Pharmaceuticals, Inc., priority 2023, published 2026).

Test system: patients with Wilson disease (WD)
Test: UWDRS Part III total score, functional subscale and individual items (neurological examination)
Assay type: in vivo, human
Details: for UWDRS Part III Functional Subscale (0-10) change from baseline, Mean (SD) / UWDRS Part III (0-175) change from baseline, Mean (SD): pooled Studies 301 and 201
Method: The UWDRS scoring system was developed specifically for the motor and movement disorders associated with chronic copper neurotoxicity in WD. Some individual items/subscales of the UWDRS Part III (arising from a chair, gait, handwriting, and speech) in addition to the UWDRS Parts I, II, and III overall, were assessed to further define the range of burdensome signs and symptoms of WD, so as to further understand the assessment of treatment effects on patients with WD. The UWDRS scores for consciousness (Part I) and abnormal neurologic examination findings (Part III) will be determined by a trained neurologist rater who is blinded to study treatment randomization. These scores were used to provide a rigorous dataset for evaluating changes from baseline.
Unified Wilson Disease Rating Scale (Parts I, II, and III): The UWDRS is a clinical rating scale designed to evaluate the neurological manifestations of WD that generally can be divided into 3 movement disorder syndromes: dystonic, ataxic, and Parkinsonian syndrome. The UWDRS comprises 3 parts: UWDRS Part I (level of consciousness, item 1), UWDRS Part II (a patient-reported review of daily activity items [disability], items 2 to 11), and UWDRS Part III (a detailed neurological examination, items 12 to 34).
The UWDRS Part I and Part III were assessed by a neurologist who is blinded to the treatment randomization, while UWDRS Part II may be reported to a non-blinded member of the study team by the patient, family member, or caregiver. The UWDRS has not been formally evaluated in adolescents. However, the components of Part I (level of consciousness), Part II (patient or caregiver-reported disability) and Part III (neurologic examination findings) were not fundamentally different between adults and adolescents. Patients aged 12 years and older were expected to be able to comply with UWDRS assessments.
Pooled results from all such participants will be integrated together into one timeline to allow analyses of changes in UWDRS, long-term copper control, and long-term safety laboratory data.
Endpoints (directly measured non-ceruloplasmin-bound copper [dNCC], UWDRS III (rater blinded) total and individual item scores, Clinical Global Impression-Improvement [CGI-I]) were evaluated at baseline (BL) and Week 48 (W48). Normalization (score decrease to 0), improvement (≥1 point decrease), stability (no change), or worsening (≥1 point increase) of total and individual UWDRS III item scores were evaluated at W48.

[1] = Week 24, Cohort 1, Study 201, n=8
[2] = Week 24, Cohort 1, Study 301, TTM n=90, SoC n=47
[3] = Week 24, Cohort 1, Total (Studies 301, 201, 205), n=98
[4] = Week 24, Study 301 TTM long term set
[5] = Week 48, Cohort 1, Study 201, n=9
[6] = Week 48, Cohort 1, Study 205, n=27
[7] = Week 48, Cohort 1, Study 301, TTM n=91, SoC n=49
[8] = Week 48, Cohort 1, Total (Studies 301, 201, 205), n=127

Question: What does the source list for bis-choline tetrathiomolybdate [TTM]?
Answer: UWDRS Part III Functional Subscale (0-10) change from baseline, Mean (SD) (TTM exposure 144 weeks): −1.042 (1.7227); UWDRS-III change from baseline, Mean (SD) (TTM exposure 168 weeks, N=18): −18.08 (19.127); UWDRS Part III (0-175) change from baseline, Mean (SD) (TTM exposure 168 weeks): −18.08 (19.127); UWDRS Part III Functional Subscale (0-10) change from baseline, Mean (SD) (TTM exposure 168 weeks): −1.841 (2.1818); UWDRS-III change from baseline, Mean (SD) (TTM exposure 192 weeks, N=19): −12.65 (19.476); UWDRS Part III (0-175) change from baseline, Mean (SD) (TTM exposure 192 weeks): −12.65 (19.476); UWDRS Part III Functional Subscale (0-10) change from baseline, Mean (SD) (TTM exposure 192 weeks): −1.250 (2.1459); UWDRS-III change from baseline, Mean (SD) (TTM exposure 216 weeks, N=14): −16.17 (19.323); UWDRS Part III (0-175) change from baseline, Mean (SD) (TTM exposure 216 weeks): −16.17 (19.323); UWDRS Part III Functional Subscale (0-10) change from baseline, Mean (SD) (TTM exposure 216 weeks): −1.519 (2.3987); UWDRS-III change from baseline, Mean (SD) (TTM exposure 240 weeks, N=13): −11.48 (16.473); UWDRS Part III (0-175) change from baseline, Mean (SD) (TTM exposure 240 weeks): −11.48 (16.473); UWDRS Part III Functional Subscale (0-10) change from baseline, Mean (SD) (TTM exposure 240 weeks): −0.898 (1.3384); UWDRS-III change from baseline, Mean (SD) (TTM exposure 264 weeks, N=13): −14.00 (16.513); UWDRS Part III (0-175) change from baseline, Mean (SD) (TTM exposure 264 weeks): −14.00 (16.513); UWDRS Part III Functional Subscale (0-10) change from baseline, Mean (SD) (TTM exposure 264 weeks): −0.995 (1.2369); UWDRS Part III-gait (0-10), Difference at 48 weeks, LSM (TTM vs SoC, P 0.4325): −0.15; UWDRS Part III-handwriting (0-4), Difference at 48 weeks, LSM (TTM vs SoC, P 0.5077): −0.1; UWDRS Part III functional subscale (0-10), Difference at 48 weeks, LSM (TTM vs SoC, P 0.6191): −0.067; UWDRS Part III-arising from chair (0-4), Difference at 48 weeks, LSM (TTM vs SoC, P 0.6869): 0.0; UWDRS Part III-speech (0-4), Difference at 48 weeks, LSM (TTM vs SoC, P 0.7238): 0.0; UWDRS Part III (0-175), Difference at 48 weeks, LSM (TTM vs SoC, P 0.9441): −0.09; UWDRS III total, LSM difference (SE) TTM versus SoC (W0-W48, cohort 1 incomplete response or intolerant, p=0.7084): −0.53 (1.426); UWDRS-III, Change from Baseline, Max [1]: 1.0; UWDRS-III, Change from Baseline, Mean [1]: −13.82; UWDRS-III, Change from Baseline, Median [1]: −13.50; UWDRS-III, Change from Baseline, Min [1]: −35.0,; UWDRS-III, Change from Baseline, Q1 [1]: −19.80,; UWDRS-III, Change from Baseline, Q3 [1]: −5.00; UWDRS-III, Change from Baseline, Max [2]: 13.0; UWDRS-III, Change from Baseline, Mean [2]: −0.86; UWDRS-III, Change from Baseline, Median [2]: 0.00; UWDRS-III, Change from Baseline, Min [2]: −18.7,; UWDRS-III, Change from Baseline, Q1 [2]: −3.00,; UWDRS-III, Change from Baseline, Q3 [2]: 1.00; UWDRS-III, Change from Baseline, Max [3]: 13.0; UWDRS-III, Change from Baseline, Mean [3]: −1.92; UWDRS-III, Change from Baseline, Median [3]: −1.00; UWDRS-III, Change from Baseline, Min [3]: −35.0,; UWDRS-III, Change from Baseline, Q1 [3]: −4.00,; UWDRS-III, Change from Baseline, Q3 [3]: 1.00; UWDRS-III, Change from Baseline, LSM Diff (TTM vs. SoC) (Week 24, Cohort 1, TTM Total vs SoC Study 301, P-value 0.3884): −1.00; UWDRS-III, Change from Baseline, LSM (Week 24, Cohort 1, TTM Total, SoC Study 301): −1.72; UWDRS Part III (0-175) change from baseline, LSM [4]: −1.32; UWDRS Part III (0-175) change from baseline, Mean [4]: −0.74; UWDRS Part III functional subscale (0-10) change from baseline, LSM [4]: −0.158; UWDRS Part III functional subscale (0-10) change from baseline, Mean [4]: −0.139; UWDRS Part III-arising from chair (0-4) change from baseline, LSM [4]: −0.1; UWDRS Part III-arising from chair (0-4) change from baseline, Mean [4]: 0.0; UWDRS Part III-gait (0-4) change from baseline, LSM [4]: −0.21; UWDRS Part III-gait (0-4) change from baseline, Mean [4]: −0.17; UWDRS Part III-handwriting (0-4) change from baseline, LSM [4]: 0.0; UWDRS Part III-handwriting (0-4) change from baseline, Mean [4]: −0.1; UWDRS Part III-speech (0-4) change from baseline, LSM [4]: −0.1; UWDRS Part III-speech (0-4) change from baseline, Mean [4]: −0.1; UWDRS-III, Change from Baseline, Max [5]: 2.0; UWDRS-III, Change from Baseline, Mean [5]: −19.44; UWDRS-III, Change from Baseline, Median [5]: −13.00; UWDRS-III, Change from Baseline, Min [5]: −48.0,; UWDRS-III, Change from Baseline, Q1 [5]: −29.00,; UWDRS-III, Change from Baseline, Q3 [5]: −9.00; UWDRS-III, Change from Baseline, Max [6]: 6.0; UWDRS-III, Change from Baseline, Mean [6]: −2.81; UWDRS-III, Change from Baseline, Median [6]: −2.00; UWDRS-III, Change from Baseline, Min [6]: −17.0,; UWDRS-III, Change from Baseline, Q1 [6]: −6.00,; UWDRS-III, Change from Baseline, Q3 [6]: 0.00; UWDRS-III, Change from Baseline, Max [7]: 31.0; UWDRS-III, Change from Baseline, Mean [7]: −2.24; UWDRS-III, Change from Baseline, Median [7]: −1.00; UWDRS-III, Change from Baseline, Min [7]: −28.0,; UWDRS-III, Change from Baseline, Q1 [7]: −4.00,; UWDRS-III, Change from Baseline, Q3 [7]: 0.00; UWDRS-III, Change from Baseline, Max [8]: 31.0; UWDRS-III, Change from Baseline, Mean [8]: −3.58
